According to PubChem BioAssay AID2060605 (Molecular Pharmacology Branch, DTP, NCI, 2025):

Test system: 947758-054-R-J2-PDC spheroid growth, percent test/control
Assay: Anticancer human tumor 947758-054-R-J2-PDC patient-derived colon adenocarcinoma cell line growth inhibition [CLK]
Conditions: spheroids with HUVEC and MSC; for IC50: curve of first compound; for viability, T/C: stronger effect = lower value
Procedure, shortened: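 Multi-cell-type spheroids combined patient-derived tumor cells with HUVEC endothelial cells and human mesenchymal stem cells. Paired agents were dosed in half-log steps down from about clinical Cmax, or from 10 microM where Cmax was unknown.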

[1] = second compound 0.0316 µM, first compound 0.0316 µM
[2] = second compound 0.0316 µM, first compound 0.1 µM
[3] = second compound 0.0316 µM, first compound 0.316 µM
[4] = second compound 0.0316 µM, first compound 1 µM
[5] = second compound 0.0316 µM, first compound 3.16 µM
[6] = second compound 0.0316 µM, first compound 10 µM
[7] = second compound 0.1 µM, first compound 0.0316 µM
[8] = second compound 0.1 µM, first compound 0.1 µM
[9] = second compound 0.1 µM, first compound 0.316 µM
[10] = second compound 0.1 µM, first compound 1 µM
[11] = second compound 0.1 µM, first compound 3.16 µM
[12] = second compound 0.1 µM, first compound 10 µM
[13] = second compound 0.316 µM, first compound 0.0316 µM
[14] = second compound 0.316 µM, first compound 0.1 µM
[15] = second compound 0.316 µM, first compound 0.316 µM
[16] = second compound 0.316 µM, first compound 1 µM
[17] = second compound 0.316 µM, first compound 3.16 µM
[18] = second compound 0.316 µM, first compound 10 µM
[19] = second compound 1 µM, first compound 0.0316 µM
[20] = second compound 1 µM, first compound 0.1 µM
[21] = second compound 1 µM, first compound 0.316 µM
[22] = second compound 1 µM, first compound 1 µM
[23] = second compound 1 µM, first compound 3.16 µM
[24] = second compound 1 µM, first compound 10 µM
[25] = second compound 3.16 µM, first compound 0.0316 µM
[26] = second compound 3.16 µM, first compound 0.1 µM
[27] = second compound 3.16 µM, first compound 0.316 µM
[28] = second compound 3.16 µM, first compound 1 µM
[29] = second compound 3.16 µM, first compound 3.16 µM
[30] = second compound 3.16 µM, first compound 10 µM
[31] = second compound 10 µM, first compound 0.0316 µM
[32] = second compound 10 µM, first compound 0.1 µM
[33] = second compound 10 µM, first compound 0.316 µM
[34] = second compound 10 µM, first compound 1 µM
[35] = second compound 10 µM, first compound 3.16 µM
[36] = second compound 10 µM, first compound 10 µM
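Note: spheroids exposed to compounds for one week before readout.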
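Throughout, for viability, T/C: 100% = DMSO vehicle control wells.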

CCCS(=O)(=O)Nc1ccc(F)c(C(=O)c2c[nH]c3ncc(-c4ccc(Cl)cc4)cc23)c1F + CNC(=O)c1ccc(Nc2nc(OC3CCCC3)c3c(-c4ccc5nc(C)oc5c4)c[nH]c3n2)c(OC)c1
IC50 (second compound 0.0316 µM): < 31.6 nM | IC50 (second compound 0.1 µM): < 31.6 nM | IC50 (second compound 0.316 µM): 32.6 nM | IC50 (second compound 1 µM): < 31.6 nM | IC50 (second compound 3.16 µM): < 31.6 nM | IC50 (second compound 10 µM): < 31.6 nM | viability, T/C [1]: 39.4% | viability, T/C [2]: 44.1% | viability, T/C [3]: 31.6% | viability, T/C [4]: 53.5% | viability, T/C [5]: 47.7% | viability, T/C [6]: 31.5% | viability, T/C [7]: 45.5% | viability, T/C [8]: 37.9% | viability, T/C [9]: 29% | viability, T/C [10]: 28.2% | viability, T/C [11]: 24.6% | viability, T/C [12]: 17.2% | viability, T/C [13]: 50.4% | viability, T/C [14]: 33.6% | viability, T/C [15]: 18.8% | viability, T/C [16]: 22.5% | viability, T/C [17]: 23.9% | viability, T/C [18]: 11.2% | viability, T/C [19]: 37.6% | viability, T/C [20]: 25.5% | viability, T/C [21]: 16.9% | viability, T/C [22]: 13.6% | viability, T/C [23]: 14.4% | viability, T/C [24]: 4.09% | viability, T/C [25]: 30.2% | viability, T/C [26]: 20.7% | viability, T/C [27]: 15.7% | viability, T/C [28]: 13.1% | viability, T/C [29]: 10% | viability, T/C [30]: 4.82% | viability, T/C [31]: 24.2% | viability, T/C [32]: 20.9% | viability, T/C [33]: 14.4% | viability, T/C [34]: 13.6% | viability, T/C [35]: 9.07% | viability, T/C [36]: 4.26%

COC1C=CCC(C)C(C)S(=O)(=O)NC(=O)c2ccc3c(c2)N(CC2CCC21)CC1(CCCc2cc(Cl)ccc21)CO3 (centres undefined) + CNC(=O)c1ccc(Nc2nc(OC3CCCC3)c3c(-c4ccc5nc(C)oc5c4)c[nH]c3n2)c(OC)c1
IC50 (second compound 0.0316 µM): 7660 nM | IC50 (second compound 0.1 µM): 5300 nM | IC50 (second compound 0.316 µM): < 31.6 nM | IC50 (second compound 1 µM): < 31.6 nM | IC50 (second compound 3.16 µM): < 31.6 nM | IC50 (second compound 10 µM): < 31.6 nM | viability, T/C [1]: 75.6% | viability, T/C [2]: 83.8% | viability, T/C [3]: 90.3% | viability, T/C [4]: 116% | viability, T/C [5]: 95.3% | viability, T/C [6]: 37.3% | viability, T/C [7]: 73.4% | viability, T/C [8]: 71.2% | viability, T/C [9]: 55.5% | viability, T/C [10]: 65.1% | viability, T/C [11]: 72.1% | viability, T/C [12]: 28.5% | viability, T/C [13]: 61.8% | viability, T/C [14]: 53.6% | viability, T/C [15]: 37.2% | viability, T/C [16]: 44.1% | viability, T/C [17]: 49.2% | viability, T/C [18]: 16.7% | viability, T/C [19]: 37.5% | viability, T/C [20]: 36.1% | viability, T/C [21]: 24.4% | viability, T/C [22]: 29.5% | viability, T/C [23]: 26.4% | viability, T/C [24]: 12.4% | viability, T/C [25]: 28.3% | viability, T/C [26]: 24.4% | viability, T/C [27]: 21.8% | viability, T/C [28]: 18.2% | viability, T/C [29]: 18.1% | viability, T/C [30]: 15.3% | viability, T/C [31]: 29.4% | viability, T/C [32]: 23.3% | viability, T/C [33]: 13.2% | viability, T/C [34]: 15.4% | viability, T/C [35]: 10.6% | viability, T/C [36]: 13.5%
